Experimental data published in patent US20250235543A1, “MODIFIED PROTEINS AND PROTEIN DEGRADERS” (Cullgen (Shanghai), Inc., priority 2021, published 2025).
Read-outs that look alike come from different tables or passages of the source.

How the values were obtained:
[1] = test system: cyclin D1; experiment: Cyclin D1 percentage degradation in Calu-1 cells (immunoblotting); assay type: cell-based; conditions: 16 hours
Outline: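 Cyclin D1 degradation was assessed by western blot. Clarified lysates, obtained by RIPA lysis with inhibitors and centrifugation at 13,000 rpm, were normalized by BCA protein assay and separated by SDS-PAGE. Bands were detected with Western ECL Substrate on a Bio-Rad ChemiDoc MP Imaging system and quantified in Image Lab software to derive percentage degradation.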

[2] = target: T1, CDK4 (Homo sapiens, UniProt P11802); experiment: CDK4 percentage degradation in Calu-1 cells (immunoblotting); assay type: cell-based; conditions: for inhibition at 0.2 µM: read-out: CDK4 Degradation (200 nM); for inhibition at 10 µM: read-out: CDK4 Degradation (10 μM)
T1 construct: endogenous in cells; host or cells: Calu-1
T1 sequence (P11802 2-303 limits assumed): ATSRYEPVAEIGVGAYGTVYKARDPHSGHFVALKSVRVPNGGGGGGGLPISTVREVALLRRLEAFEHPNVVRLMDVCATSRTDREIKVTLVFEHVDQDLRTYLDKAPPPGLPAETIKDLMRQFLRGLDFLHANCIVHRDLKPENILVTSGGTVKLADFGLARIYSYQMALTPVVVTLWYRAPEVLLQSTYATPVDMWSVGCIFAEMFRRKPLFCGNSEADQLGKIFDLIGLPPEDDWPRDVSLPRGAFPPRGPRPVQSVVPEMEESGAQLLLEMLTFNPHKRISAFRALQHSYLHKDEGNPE
T1 sequence (P24385 whole entry partner): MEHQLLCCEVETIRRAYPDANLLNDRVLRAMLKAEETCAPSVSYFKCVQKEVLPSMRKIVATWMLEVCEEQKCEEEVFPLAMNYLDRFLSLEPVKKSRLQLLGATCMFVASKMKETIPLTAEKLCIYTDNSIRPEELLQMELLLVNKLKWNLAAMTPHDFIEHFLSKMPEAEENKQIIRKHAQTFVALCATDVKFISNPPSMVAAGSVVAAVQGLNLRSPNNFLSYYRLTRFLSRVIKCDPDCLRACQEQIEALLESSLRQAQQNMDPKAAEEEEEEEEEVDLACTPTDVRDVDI
T1 sequence (Q16531 2-1140 limits assumed, further chain): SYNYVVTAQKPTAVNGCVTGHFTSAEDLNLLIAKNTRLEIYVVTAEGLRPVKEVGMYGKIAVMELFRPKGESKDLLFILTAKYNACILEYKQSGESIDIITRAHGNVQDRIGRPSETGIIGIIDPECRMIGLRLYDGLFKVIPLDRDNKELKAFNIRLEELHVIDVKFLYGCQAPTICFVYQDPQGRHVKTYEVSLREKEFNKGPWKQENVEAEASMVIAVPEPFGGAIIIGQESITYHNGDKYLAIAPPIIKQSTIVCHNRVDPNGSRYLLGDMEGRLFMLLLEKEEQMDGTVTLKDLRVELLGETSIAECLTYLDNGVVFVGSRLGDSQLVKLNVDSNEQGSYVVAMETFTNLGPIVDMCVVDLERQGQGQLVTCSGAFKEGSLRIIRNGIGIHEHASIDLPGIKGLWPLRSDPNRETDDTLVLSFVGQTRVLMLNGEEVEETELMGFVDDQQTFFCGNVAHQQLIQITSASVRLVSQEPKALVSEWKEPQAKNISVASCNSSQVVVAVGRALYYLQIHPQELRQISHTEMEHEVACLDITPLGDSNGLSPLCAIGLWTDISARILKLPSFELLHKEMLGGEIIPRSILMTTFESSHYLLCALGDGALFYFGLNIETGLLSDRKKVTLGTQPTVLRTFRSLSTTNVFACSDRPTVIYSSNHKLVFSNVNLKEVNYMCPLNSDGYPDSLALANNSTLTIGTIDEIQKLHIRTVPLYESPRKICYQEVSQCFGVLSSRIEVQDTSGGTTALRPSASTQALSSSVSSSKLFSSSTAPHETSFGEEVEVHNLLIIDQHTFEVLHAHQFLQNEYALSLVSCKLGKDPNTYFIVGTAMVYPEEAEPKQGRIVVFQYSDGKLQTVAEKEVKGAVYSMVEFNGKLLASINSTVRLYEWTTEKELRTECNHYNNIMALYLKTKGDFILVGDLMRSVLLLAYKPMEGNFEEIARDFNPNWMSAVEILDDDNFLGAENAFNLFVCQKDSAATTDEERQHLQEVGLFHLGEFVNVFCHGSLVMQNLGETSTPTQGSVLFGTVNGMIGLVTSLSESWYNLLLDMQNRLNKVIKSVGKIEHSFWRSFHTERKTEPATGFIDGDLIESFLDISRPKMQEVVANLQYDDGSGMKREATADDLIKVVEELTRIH
Outline: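 CDK4 degradation was measured by immunoblotting. Cells were washed in cold PBS and lysed in RIPA buffer with inhibitors for 30 min at 4° C., then spun at 13,000 rpm to clear. After BCA protein determination, lysates were heated at 99° C. for 5 min in Laemmli buffer, resolved on SDS-PAGE, imaged on a ChemiDoc MP with ECL substrate, and band intensities quantified.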

inhibition at 0.2 µM ([2]; Calu-1 cells, 200 nM, 16 hours) [%] | inhibition at 10 µM ([2]; Calu-1 cells, 16 hours) [%] | Structure (SMILES) | CyclinD1 Degradation (200 nM) [1] | CyclinD1 Degradation (10 μM) [1] | inhibition at 0.2 µM ([2]; Calu-1, 16 h) [%]
> 80 | – | CC(=O)c1c(C)c2cnc(Nc3ccc(N4CCN(CC(=O)NCCOCCOCCOCCOCCOCCOCCC(=O)Nc5ccccc5C(=O)Nc5nc(C)c(C)s5)CC4)cn3)nc2n(C2CCCC2)c1=O [CPD-173, 2-(1-(4-(6-((6-Acetyl-8-cyclopentyl-5-methyl-7-oxo-7,8-dihydropyrido[2,3-d]pyrimidin-2-yl)amino)pyridin-3-yl)piperazin-1-yl)-2-oxo-6,9,12,15,18,21-hexaoxa-3-azatetracosan-24-amido)-N-(4,5-dimethylthiazol-2-yl)benzamide] | A (protein percentage degradation >=80%) | – | –
– | 30 to 50 | Cc1nc(NC(=O)c2ccccc2NC(=O)CCOCCOCCOCCOCCNC(=O)CN2CCN(c3ccc(Nc4ncc(F)c(-c5cc(F)c6nc(C)n(C(C)C)c6c5)n4)nc3)CC2)sc1C [CPD-311, N-(4,5-Dimethylthiazol-2-yl)-2-(1-(4-(6-((5-fluoro-4-(4-fluoro-1-isopropyl-2-methyl-1H-benzo[d]imidazol-6-yl)pyrimidin-2-yl)amino)pyridin-3-yl)piperazin-1-yl)-2-oxo-6,9,12,15-tetraoxa-3-azaoctadecan-18-amido)benzamide] | – | A (protein percentage degradation >= 80%) | –
< 30 | – | CC(=O)c1c(C)c2cnc(Nc3ccc(N4CCN(CC(=O)NCCCCCCNc5ccc(C)c(C(=O)Nc6nc(C)c(C)s6)c5)CC4)cn3)nc2n(C2CCCC2)c1=O [CPD-094, 5-((6-(2-(4-(6-((6-Acetyl-8-cyclopentyl-5-methyl-7-oxo-7,8-dihydropyrido[2,3-d]pyrimidin-2-yl)amino)pyridin-3-yl)piperazin-1-yl)acetamido)hexyl)amino)-N-(4,5-dimethylthiazol-2-yl)-2-methylbenzamide] | D (protein percentage degradation <30%) | – | –
> 80 | – | CC(=O)c1c(C)c2cnc(Nc3ccc(N4CCN(CC(=O)NCCOCCOCCC(=O)Nc5ccccc5C(=O)Nc5nc(Br)c(C)s5)CC4)cn3)nc2n(C2CCCC2)c1=O [CPD-071, 2-(3-(2-(2-(2-(4-(6-((6-Acetyl-8-cyclopentyl-5-methyl-7-oxo-7,8-dihydropyrido[2,3-d]pyrimidin-2-yl)amino)pyridin-3-yl)piperazin-1-yl)acetamido)ethoxy)ethoxy)propanamido)-N-(4-bromo-5-methylthiazol-2-yl)benzamide] | A (protein percentage degradation >=80%) | – | –
50 to 80 | – | CNc1ccc(NC(=O)CCOCCOCCNC(=O)CN2CCN(c3ccc(Nc4ncc5c(C)c(C(C)=O)c(=O)n(C6CCCC6)c5n4)nc3)CC2)c(C(=O)Nc2nc(C)c(C)s2)c1 [CPD-150, 2-(3-(2-(2-(2-(4-(6-((6-Acetyl-8-cyclopentyl-5-methyl-7-oxo-7,8-dihydropyrido[2,3-d]pyrimidin-2-yl)amino)pyridin-3-yl)piperazin-1-yl)acetamido)ethoxy)ethoxy)propanamido)-N-(4,5-dimethylthiazol-2-yl)-5-(methylamino)benzamide] | A (protein percentage degradation >=80%) | – | –
< 30 | – | CC(=O)c1c(C)c2cnc(Nc3ccc(N4CCN(CC(=O)NCCOCCOCCC(=O)Nc5ccccc5C(=O)Nc5cc(C6CC6)n(C)n5)CC4)cn3)nc2n(C2CCCC2)c1=O [CPD-079, 2-(3-(2-(2-(2-(4-(6-((6-Acetyl-8-cyclopentyl-5-methyl-7-oxo-7,8-dihydropyrido[2,3-d]pyrimidin-2-yl)amino)pyridin-3-yl)piperazin-1-yl)acetamido)ethoxy)ethoxy)propanamido)-N-(5-cyclopropyl-1-methyl-1H-pyrazol-3-yl)benzamide] | D (protein percentage degradation <30%) | – | –
– | 50 to 80 | Cc1nc(NC(=O)c2ccccc2NC(=O)CCCNC(=O)CN2CCN(c3ccc(Nc4ncc5cc(C(=O)N(C)C)n(C6CCCC6)c5n4)nc3)CC2)sc1C [CPD-288, 7-Cyclopentyl-2-((5-(4-(2-((4-((2-((4,5-dimethylthiazol-2-yl)carbamoyl)phenyl)amino)-4-oxobutyl)amino)-2-oxoethyl)piperazin-1-yl)pyridin-2-yl)amino)-N,N-dimethyl-7H-pyrrolo[2,3-d]pyrimidine-6-carboxamide] | – | A (protein percentage degradation >= 80%) | –
< 30 | – | CC(=O)c1c(C)c2cnc(Nc3ccc(N4CCN(CC(=O)NCCOCCOCCC(=O)Nc5ccccc5C(=O)Nc5nc(C6CCN(C)CC6)c(C)s5)CC4)cn3)nc2n(C2CCCC2)c1=O [CPD-080, 2-(3-(2-(2-(2-(4-(6-((6-Acetyl-8-cyclopentyl-5-methyl-7-oxo-7,8-dihydropyrido[2,3-d]pyrimidin-2-yl)amino)pyridin-3-yl)piperazin-1-yl)acetamido)ethoxy)ethoxy)propanamido)-N-(5-methyl-4-(1-methylpiperidin-4-yl)thiazol-2-yl)benzamide] | D (protein percentage degradation <30%) | – | –
50 to 80 | – | CC(=O)c1c(C)c2cnc(Nc3ccc(N4CCN(CC(=O)NCCOCCOCCNc5cccc(C(=O)Nc6cc(C)n(C)n6)c5C)CC4)cn3)nc2n(C2CCCC2)c1=O [CPD-067, 3-((2-(2-(2-(2-(4-(6-((6-Acetyl-8-cyclopentyl-5-methyl-7-oxo-7,8-dihydropyrido[2,3-d]pyrimidin-2-yl)amino)pyridin-3-yl)piperazin-1-yl)acetamido)ethoxy)ethoxy)ethyl)amino)-N-(1,5-dimethyl-1H-pyrazol-3-yl)-2-methylbenzamide] | A (protein percentage degradation >=80%) | – | –
> 80 | – | CC(=O)c1c(C)c2cnc(Nc3ccc(N4CCN(CC(=O)NCCOCCOCCC(=O)Nc5cc(C)ccc5C(=O)Nc5nc(C)c(C)s5)CC4)cn3)nc2n(C2CCCC2)c1=O [CPD-149, 2-(3-(2-(2-(2-(4-(6-((6-Acetyl-8-cyclopentyl-5-methyl-7-oxo-7,8-dihydropyrido[2,3-d]pyrimidin-2-yl)amino)pyridin-3-yl)piperazin-1-yl)acetamido)ethoxy)ethoxy)propanamido)-N-(4,5-dimethylthiazol-2-yl)-4-methylbenzamide] | A (protein percentage degradation >=80%) | – | –
50 to 80 | – | CC(=O)c1c(C)c2cnc(Nc3ccc(N4CCN(CC(=O)NC(C)CCCCNc5cc(Cl)ccc5C(=O)Nc5ccc(C)c(C6CC6)n5)CC4)cn3)nc2n(C2CCCC2)c1=O (stereo not drawn) [CPD-379, 2-((5-(2-(4-(6-((6-Acetyl-8-cyclopentyl-5-methyl-7-oxo-7,8-dihydropyrido[2,3-d]pyrimidin-2-yl)amino)pyridin-3-yl)piperazin-1-yl)acetamido)hexyl)amino)-4-chloro-N-(6-cyclopropyl-5-methylpyridin-2-yl)benzamide] | A (protein percentage degradation >=80%) | – | –
< 30 | – | COC(=O)c1cnc(NC(=O)c2ccc(NCCOCCOCCOCCOCCOCCNC(=O)CN3CCN(c4ccc(Nc5ncc6c(C)c(C(C)=O)c(=O)n(C7CCCC7)c6n5)nc4)CC3)cc2C)s1 [CPD-032, Methyl 2-(4-((1-(4-(6-((6-acetyl-8-cyclopentyl-5-methyl-7-oxo-7,8-dihydropyrido[2,3-d]pyrimidin-2-yl)amino)pyridin-3-yl)piperazin-1-yl)-2-oxo-6,9,12,15,18-pentaoxa-3-azaicosan-20-yl)amino)-2-methylbenzamido)thiazole-5-carboxylate] | D (protein percentage degradation <30%) | – | –
– | < 30 | Cc1nc(NC(=O)c2ccccc2NC(=O)CCOCCNC(=O)CN2CCN(c3ccc(Nc4ncc(F)c(-c5cc(F)c6nc(C)n(C(C)C)c6c5)n4)nc3)CC2)sc1C [CPD-308, N-(4,5-Dimethylthiazol-2-yl)-2-(3-(2-(2-(4-(6-((5-fluoro-4-(4-fluoro-1-isopropyl-2-methyl-1H-benzo[d]imidazol-6-yl)pyrimidin-2-yl)amino)pyridin-3-yl)piperazin-1-yl)acetamido)ethoxy)propanamido)benzamide] | – | B (protein percentage degradation < 80%, and >= 50%) | –
50 to 80 | – | CC(=O)c1c(C)c2cnc(Nc3ccc(N4CCN(CC(=O)NCCOCCOCCC(=O)Nc5ccccc5C(=O)Nc5cc(C)[nH]n5)CC4)cn3)nc2n(C2CCCC2)c1=O [CPD-074, 2-(3-(2-(2-(2-(4-(6-((6-Acetyl-8-cyclopentyl-5-methyl-7-oxo-7,8-dihydropyrido[2,3-d]pyrimidin-2-yl)amino)pyridin-3-yl)piperazin-1-yl)acetamido)ethoxy)ethoxy)propanamido)-N-(5-methyl-1H-pyrazol-3-yl)benzamide] | B (protein percentage degradation <80%, and >=50%) | – | –
– | – | CC(=O)c1c(C)c2cnc(Nc3ccc(N4CCN(C(=O)CCOCCOCCNc5ccc(C)c(C(=O)Nc6nc(C)c(C)s6)c5)CC4)cn3)nc2n(C2CCCC2)c1=O [CPD-130, 5-((2-(2-(3-(4-(6-((6-Acetyl-8-cyclopentyl-5-methyl-7-oxo-7,8-dihydropyrido[2,3-d]pyrimidin-2-yl)amino)pyridin-3-yl)piperazin-1-yl)-3-oxopropoxy)ethoxy)ethyl)amino)-N-(4,5-dimethylthiazol-2-yl)-2-methylbenzamide] | D (protein percentage degradation <30%) | – | < 30
